Earlier results, collected in US7799357B2, “In vitro resveratrol-rich callus tissues derived from Vitis thunbergii Sieb. et Zucc and method for producing the same” (Tatung Company, priority 2007, dated 2010).

Tested on: Nothobranchius furzeri
Conditions: short-lived fish Nothobranchius furzeri

In the case of `Oc1ccc(/C=C/c2cc(O)cc(O)c2)cc1` [Resveratrol, 3,5,4′-trihydroxystilbene], the “extension of maximum lifespan” value (maximum lifespan) is given as 59% and the “extension of median lifespan” value (median lifespan) is given as 56%.
